In ChEMBL document CHEMBL2034824, “Pyridyl-2,5-diketopiperazines as potent, selective, and orally bioavailable oxytocin antagonists: synthesis, pharmacokinetics, and in vivo potency” (J Med Chem, 2012):
Converted amounts (≈) assume the structure as drawn.

Assays:
Oxytocin receptor = molecular target: T1, Oxytocin receptor (Homo sapiens, UniProt P30559); test: Displacement of [3H]oxytocin from human oxytocin receptor
T1 sequence (P30559 whole entry): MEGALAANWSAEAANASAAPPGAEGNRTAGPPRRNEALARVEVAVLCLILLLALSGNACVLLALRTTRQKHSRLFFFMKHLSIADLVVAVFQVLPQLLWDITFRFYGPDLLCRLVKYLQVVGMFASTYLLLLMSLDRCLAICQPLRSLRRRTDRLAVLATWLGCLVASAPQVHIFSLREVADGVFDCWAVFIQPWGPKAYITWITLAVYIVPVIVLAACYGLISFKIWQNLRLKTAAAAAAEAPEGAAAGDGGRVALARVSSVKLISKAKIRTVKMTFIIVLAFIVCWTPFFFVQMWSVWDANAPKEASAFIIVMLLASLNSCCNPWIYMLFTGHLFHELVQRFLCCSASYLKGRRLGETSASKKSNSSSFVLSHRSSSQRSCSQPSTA

[1] = Aqueous solubility of the compound by HPLC analysis; type: physicochemical
Liver = test: Intrinsic clearance in dog liver microsomes; type: ADME, Canis lupus familiaris, Microsome
Liver microsomes [2] = test: Intrinsic clearance in human liver microsomes; type: ADME, Microsome
Liver microsomes [3] = test: Intrinsic clearance in rat liver microsomes; type: ADME, Microsome
[4] = AUC in rat at 5 mg/kg, po; type: ADME, organism-based; parameters: dose 5 mg/kg, route oral; conditions: plasma
[5] = Intrinsic clearance in cynomolgus monkey liver microsomes; type: ADME, Macaca fascicularis, Microsome
[6] = Clearance in rat at 5 mg/kg; type: ADME, organism-based; parameters: dose 5 mg/kg; conditions: in vivo
[7] = Oral bioavailability in rat at 5 mg/kg; type: ADME, organism-based; conditions: in vivo
[8] = Clearance in dog at 0.6 mg/kg; type: ADME, organism-based, Canis lupus familiaris; parameters: dose 0.6 mg/kg; conditions: in vivo
[9] = Oral bioavailability in dog at 0.6 mg/kg; type: ADME, organism-based, Canis lupus familiaris; conditions: in vivo
[10] = AUC in dog at 0.6 mg/kg, po; type: ADME, organism-based, Canis lupus familiaris; parameters: dose 0.6 mg/kg, route oral; conditions: plasma

| Structure (SMILES) | Ki (Oxytocin receptor) [nM] | solubility [1] [µg/mL] | CLH (Liver) [mL/min/g] | CLH (Liver microsomes [2]) [mL/min/g] | CLH (Liver microsomes [3]) [mL/min/g] | AUC [4] [ng·h/mL] | CLH [5] [mL/min/g] | clearance [6] [mL/min/kg] | bioavailability [7] [%] | clearance [8] [mL/min/kg] | bioavailability [9] [%] | AUC [10] [ng·h/mL] |
| --- | --- | --- | --- | --- | --- | --- | --- | --- | --- | --- | --- | --- |
| Cc1ccc([C@H](C(=O)N(C)C)N2C(=O)[C@@H](C3Cc4ccccc4C3)NC(=O)[C@H]2CC2CC2)cn1 | 5.01 | 230 (≈ 499 µM) |  |  |  |  |  |  |  |  |  |  |
| Cc1ccc([C@H](C(=O)N(C)C)N2C(=O)[C@@H](C3Cc4ccccc4C3)NC(=O)[C@H]2CC(C)(C)C)cn1 | 0.0631 | > 242 | 1 | 6 | 3 | 618 | 8 |  |  |  |  |  |
| CC[C@H](C)[C@@H]1C(=O)N[C@H](C2Cc3ccccc3C2)C(=O)N1[C@@H](C(=O)N(C)C)c1cc(C)cnc1C | 0.794 |  | 2 | 5 | 1 | 1370 | 13 |  |  |  |  |  |
| CC[C@H](C)[C@@H]1C(=O)N[C@H](C2Cc3ccccc3C2)C(=O)N1[C@@H](C(=O)N1CCOCC1)c1cc(C)cnc1C | 0.794 |  |  |  |  |  |  |  |  |  |  |  |
| CC[C@H](C)[C@@H]1C(=O)N[C@H](C2Cc3ccccc3C2)C(=O)N1[C@@H](C(=O)N1CCOCC1)c1cnc(C)cc1C | 0.0501 |  | 4 | 1 | 1 | 1110 | 16 |  |  |  |  |  |
| CCC(CC)[C@@H]1C(=O)N[C@H](C2Cc3ccccc3C2)C(=O)N1[C@@H](C(=O)N(C)C)c1ccc(C)nc1 | 0.0501 |  | 1 | 11 | 2 | 1810 | 12 | 20 | 36 | 19 | 47 | 255 |
| CCC(CC)[C@@H]1C(=O)N[C@H](C2Cc3ccccc3C2)C(=O)N1[C@@H](C(=O)N1CCOCC1)c1ccc(C)nc1 | 0.0251 |  | 5 | 12 | 1 | 1380 | 18 | 23 | 55 |  |  |  |
| CCC(CC)[C@@H]1C(=O)N[C@H](C2Cc3ccccc3C2)C(=O)N1[C@@H](C(=O)NC)c1ccc(C)nc1C | 0.0501 |  |  |  | 2 | 1240 | 31 |  |  |  |  |  |
| CCC(CC)[C@@H]1C(=O)N[C@H](C2Cc3ccccc3C2)C(=O)N1[C@@H](C(=O)N(C)C)c1ccc(C)nc1C | 0.0316 |  | 1 | 18 | 3 |  | 29 |  |  |  |  |  |

Next, values leading:

| Ki (Oxytocin receptor) [nM] | solubility [1] [µg/mL] | CLH (Liver) [mL/min/g] | CLH (Liver microsomes [2]) [mL/min/g] | CLH (Liver microsomes [3]) [mL/min/g] | AUC [4] [ng·h/mL] | CLH [5] [mL/min/g] | clearance [6] [mL/min/kg] | bioavailability [7] [%] | clearance [8] [mL/min/kg] | bioavailability [9] [%] | AUC [10] [ng·h/mL] | Structure (SMILES) |
| --- | --- | --- | --- | --- | --- | --- | --- | --- | --- | --- | --- | --- |
| 5.01 | > 258 |  |  |  |  |  |  |  |  |  |  | Cc1ccc([C@H](C(=O)N2CCOCC2)N2C(=O)[C@@H](C3Cc4ccccc4C3)NC(=O)[C@H]2CC2CC2)cn1 |
| 1 | > 237 | 1 | 3 | 1 | 3360 | 11 | 23 | 82 |  |  |  | CC[C@@H](C)[C@@H]1C(=O)N[C@H](C2Cc3ccccc3C2)C(=O)N1[C@@H](C(=O)N(C)C)c1ccc(C)nc1 |
| 1.26 |  | 3 | 3 | 1 |  | 5 |  |  |  |  |  | CC[C@H](C)[C@@H]1C(=O)N[C@H](C2Cc3ccccc3C2)C(=O)N1[C@@H](C(=O)NC)c1cc(C)cnc1C |
| 0.0631 |  | 4 | 7 | 1 | 407 | 20 | 23 | 11 |  |  |  | CC[C@H](C)[C@@H]1C(=O)N[C@H](C2Cc3ccccc3C2)C(=O)N1[C@@H](C(=O)NC)c1cnc(C)cc1C |
| 0.0398 |  | 1 | 9 | 1 | 2680 | 32 |  |  | 12 | 17 | 140 | CC[C@H](C)[C@@H]1C(=O)N[C@H](C2Cc3ccccc3C2)C(=O)N1[C@@H](C(=O)N(C)C)c1cnc(C)cc1C |
